Experiment [1] has as its system 1205Lu melanoma cells. As to the kind of experiment: Apoptosis by flow cytometry (AnnexinV-FITC/PI) of cells on MAF-derived ECM. Format: cell-based. Particulars: 10 μM Imatinib in presence of 2 μM Vemurafenib, 48 h, 1205Lu on 3D-ECM. As for the experimental part:
Cell cycle profiles were determined by flow cytometry analysis of propidium iodide (PI)-stained cells. Melanoma cells cultured onto cell-derived matrices and treated with or without 2 μM vemurafenib for 48 h were washed, fixed in 80% ethanol and incubated at −20° C. for 24 h. Cells were then stained for 20 min at 37° C. in buffer containing 40 μg/ml PI and 20 μg/ml ribonuclease A from bovine pancreas. Cell cycle profiles were collected on a FACS Canto. Cell death was evaluated by flow cytometry following staining with AnnexinV/PI (eBioscience).
For orientation: In flow cytometry, cells or beads pass a laser one at a time.

Experiment [2] concerns the target T1, DDR2 (Homo sapiens, UniProt Q16832).
T1 sequence (Q16832 22-855): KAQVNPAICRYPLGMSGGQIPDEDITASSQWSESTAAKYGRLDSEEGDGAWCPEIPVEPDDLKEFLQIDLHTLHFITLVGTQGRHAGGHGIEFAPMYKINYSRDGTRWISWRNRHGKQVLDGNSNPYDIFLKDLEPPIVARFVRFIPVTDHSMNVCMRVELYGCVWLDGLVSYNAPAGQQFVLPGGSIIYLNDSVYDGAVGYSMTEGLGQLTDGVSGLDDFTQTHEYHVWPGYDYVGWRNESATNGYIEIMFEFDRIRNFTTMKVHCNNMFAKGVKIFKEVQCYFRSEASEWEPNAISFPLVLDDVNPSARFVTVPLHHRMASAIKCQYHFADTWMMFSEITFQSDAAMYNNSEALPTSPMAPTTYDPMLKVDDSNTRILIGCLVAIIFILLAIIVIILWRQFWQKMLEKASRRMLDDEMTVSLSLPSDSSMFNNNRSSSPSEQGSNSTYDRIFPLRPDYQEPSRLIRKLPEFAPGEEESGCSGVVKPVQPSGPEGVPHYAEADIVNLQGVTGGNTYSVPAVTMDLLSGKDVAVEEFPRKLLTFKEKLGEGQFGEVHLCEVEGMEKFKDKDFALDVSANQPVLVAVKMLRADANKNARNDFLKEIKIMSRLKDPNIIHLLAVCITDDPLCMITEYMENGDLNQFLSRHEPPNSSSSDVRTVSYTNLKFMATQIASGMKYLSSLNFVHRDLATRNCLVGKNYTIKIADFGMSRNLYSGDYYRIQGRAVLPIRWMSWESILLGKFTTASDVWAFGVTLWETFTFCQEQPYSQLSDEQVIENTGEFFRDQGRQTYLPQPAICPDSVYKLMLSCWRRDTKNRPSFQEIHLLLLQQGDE
As to the kind of experiment: Type I collagen-mediated DDR2 tyrosine phosphorylation in melanoma cells (immunoblot). Format: cell-based. Conditions: data not shown.

The subject of experiment [3] is 1205Lu melanoma cells. Conditions: Kaplan-Meier, 1205Lu melanoma-bearing mice. As to the method: Mouse experiments were carried out in accordance with the Institutional Animal Care and the local ethical committee. […] Tumor was measured by caliper and the volume was calculated using the formula: V=tumor width×tumor length 2×0.5. When tumor reached 100 mm^3, mice were randomly grouped into control and test groups. […] Mice in control group were treated with vehicle. […] After animal sacrifice tumors were dissected, fixed in formalin and embedded in paraffin.

On to `Cc1ccc(NC(=O)c2ccc(CN3CCN(C)CC3)cc2)cc1Nc1nccc(-c2cccnc2)n1` [Imatinib, (4-(4-methylpiperazin-l-yhnethyl)-N-[4-methyl-3-(4-pyridin-3-yl)pyrimidin-2-ylamino)phenyl-benzamide)], for which the “apoptosis (AnnexinV/PI cytometry)” value in experiment [1] is recorded as “Induction of apoptosis”. For the same compound, the “type I collagen-mediated DDR2 tyrosine phosphorylation” value in experiment [2] is reported as “efficiently abrogated”.
Turning to `CCCS(=O)(=O)Nc1ccc(F)c(C(=O)c2c[nH]c3ncc(-c4ccc(Cl)cc4)cc23)c1F` [Vemurafenib], in experiment [3], the “Median time to progression” value came to 36 days.

(Values after US20210244737A1, “COMPOSITIONS FOR TREATING MELANOMA” (INSERM (INSTITUT NATIONAL DE LA SANTÉ ET DE LA RECHERCHE …, priority 2018, published 2021).)
